Earlier results, collected in patent US9872864B2, “Sustained release composition of prostacyclin” (priority 2011, dated 2018).

Conditions: background statement

In the case of `CCCCC[C@H](O)CC[C@@H]1[C@H]2Cc3cccc(OCC(=O)O)c3C[C@H]2C[C@H]1O` [treprostinil], the half-life is given as 4 h.
